Experimental data from patent US6806230B1, “Pyrimidine derivatives and herbicides containing them” (Kumiai Chemical Industry Co., Ltd., priority 1999, dated 2004).

What was measured:
Type in all cases: in vivo
barnyard grass (Eo) [1] = assay: Test Example 1: herbicidal effects by flooded paddy field treatment; set-up: herbicidal effects, Eo (barnyard grass):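 0-5 growth inhibition grade; 5 = over 90%; 4 = 70-90%; 3 = 50-70%; 2 = 30-50%; 1 = 10-30%; 0 = under 10%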; details: for herbicidal effects, Eo (barnyard grass): dose 100 g active ingredient per 10 ares, examined on the 21st day after treatment, standards of Table 44; for Herbicidal effect index, Eo: dose 100 gai/10a, examined on 21st day after treatment, index 0-5 per Table 44;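 as to Herbicidal effect index, Eo: 0-5 growth inhibition grade; 5 = over 90%; 4 = 70-90%; 3 = 50-70%; 2 = 30-50%; 1 = 10-30%; 0 = under 10%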
In short: (§1)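 Flooded paddy pre-emergence test: sowing into puddled soil under 3 cm water, then dropwise water-surface treatment the following day with diluted wettable powder at 100 g active ingredient per 10 ares. Greenhouse cultivation followed, and weeds were rated against a standard scale at 21 days.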

monochoria (Mo) [2] = assay: as above; set-up: herbicidal effects, Mo (monochoria):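 0-5 growth inhibition grade; 5 = over 90%; 4 = 70-90%; 3 = 50-70%; 2 = 30-50%; 1 = 10-30%; 0 = under 10%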; details: for herbicidal effects, Mo (monochoria): dose 100 g active ingredient per 10 ares, examined on the 21st day after treatment, standards of Table 44; for Herbicidal effect index, Mo: dose 100 gai/10a, examined on 21st day after treatment, index 0-5 per Table 44
In short: as §1

barnyard grass (Ec) = assay: Test Example 2: herbicidal effects by upland soil treatment; set-up: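 0-5 growth inhibition grade; 5 = over 90%; 4 = 70-90%; 3 = 50-70%; 2 = 30-50%; 1 = 10-30%; 0 = under 10%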; details: dose 100 g active ingredient per 10 ares, examined on the 21st day after treatment, standards of Table 44
In short: (§2)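 Pre-emergence test: barnyard grass and green foxtail sown in upland soil, then soil surface sprayed with wettable-powder formulation at 100 g active ingredient per 10 ares (100 l per 10 ares). Grown in greenhouse; herbicidal effect scored on a rating scale 21 days after treatment.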

green foxtail (Se) = assay: as above; details: dose 100 g active ingredient per 10 ares, examined on the 21st day after treatment, standards of Table 44;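 also: 0-5 growth inhibition grade; 5 = over 90%; 4 = 70-90%; 3 = 50-70%; 2 = 30-50%; 1 = 10-30%; 0 = under 10%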
In short: as §2

barnyard grass (Eo) [3] = assay: Test Example 4: selectivity for a crop plant by flooded paddy field treatment; set-up: scale not given here; details: for Eo (herbicidal effect index): barnyard grass, dose 25 gai/10a, 21st day after treatment, index per Table 44; for Eo (herbicidal effects, index): dose 25 g active ingredient per 10 ares, examined on the 21st day after treatment
In short: (§3)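 Steps: fill pot with paddy soil and puddle; sow weed seeds; transplant rice at second-leaf stage; flood to 3 cm. Next day, drip the water-diluted wettable powder onto the water (25 g a.i./10 ares). Grow in greenhouse and rate herbicidal effect on day 21.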

monochoria (Mo) [4] = assay: as above; set-up: scale not given here; details: for Mo (herbicidal effect index): monochoria, dose 25 gai/10a, 21st day after treatment, index per Table 44; for Mo (herbicidal effects, index): dose 25 g active ingredient per 10 ares, examined on the 21st day after treatment
In short: as §3

rice (Or) = assay: as above; set-up: scale not given here; details: rice transplanted at second leaf stage; for Or (herbicidal effect index on crop): dose 25 gai/10a, 21st day after treatment, index per Table 44; for Or (effect on crop plant rice, index): dose 25 g active ingredient per 10 ares, examined on the 21st day after treatment
In short: as §3
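For Herbicidal effect index, Mo in this document: 0-5 growth inhibition grade; 5 = over 90%; 4 = 70-90%; 3 = 50-70%; 2 = 30-50%; 1 = 10-30%; 0 = under 10%.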

Structure (SMILES) | herbicidal effects, Eo (barnyard grass) (barnyard grass (Eo) [1]) | herbicidal effects, Mo (monochoria) (monochoria (Mo) [2]) | herbicidal effects, Ec (barnyard grass) (barnyard grass (Ec)) | herbicidal effects, Se (green foxtail) (green foxtail (Se)) | Eo (herbicidal effect index) (barnyard grass (Eo) [3]) | Mo (herbicidal effect index) (monochoria (Mo) [4]) | Or (herbicidal effect index on crop) (rice (Or)) | Herbicidal effect index, Eo (barnyard grass (Eo) [1]) | Herbicidal effect index, Mo (monochoria (Mo) [2]) | Eo (herbicidal effects, index) (barnyard grass (Eo) [3]) | Mo (herbicidal effects, index) (monochoria (Mo) [4]) | Or (effect on crop plant rice, index) (rice (Or))
CCN(C(=O)Cc1ccc(C)cc1)C(c1cncnc1C(F)F)C(C)C (racemic) [Compound 1-171] | 5 | 5 | 5 | 4 | 5 | 5 | 1 | – | – | – | – | –
CC(C)c1ncncc1C(C(C)C)N(C)C(=O)Cc1ccc(Cl)cc1 (racemic) [Compound 1-130] | 5 | 5 | 5 | 5 | 5 | 5 | 1 | – | – | – | – | –
CN(C(=O)Cc1ccccc1)C(c1ccc(F)cc1)c1cncnc1C(F)(F)F (racemic) [1-217] | 5 | 5 | 5 | 5 | 5 | 5 | 1 | – | – | – | – | –
CCCN(C(=O)Cc1ccccc1)C(c1cncnc1C(F)(F)F)C(C)C (racemic) [Compound 1-63] | – | – | 5 | 5 | – | – | – | 5 | 5 | 5 | 5 | 1
CCN(C(=O)Cc1ccccc1)C(c1cncnc1C(F)F)C(C)C (racemic) [Compound 1-168] | 5 | 5 | 5 | 5 | 5 | 5 | 1 | – | – | – | – | –
CN(C(=O)Cc1ccc(Cl)cc1)C(c1cccs1)c1cncnc1C(F)(F)F (racemic) [1-200] | 5 | 5 | 5 | 5 | 5 | 5 | 1 | – | – | – | – | –
Cc1ccc(CC(=O)N(C)C(c2ccccc2)c2cncnc2C(F)(F)F)cc1 (racemic) [1-197] | 5 | 5 | 5 | 5 | 5 | 5 | 0 | – | – | – | – | –
CC(C)C(c1cncnc1C(F)(F)F)N(C)C(=O)OCc1ccccc1 (racemic) [Compound 1-118] | – | – | 5 | 5 | 5 | 3 | 0 | 5 | 5 | – | – | –
Cc1ccc(CC(=O)N(C)C(c2cncnc2C(F)(F)F)C(C)C)cc1C (racemic) [Compound 1-72] | – | – | 5 | 4 | – | – | – | 5 | 5 | 5 | 5 | 0
CC(C)C(c1cncnc1C(F)(F)F)N(C)C(=O)Cc1ccc(Cl)c(F)c1 (racemic) [1-180] | 5 | 5 | 5 | 5 | 5 | 5 | 1 | – | – | – | – | –
CN(C(=O)Cc1ccc(Cl)cc1)C(c1cncnc1C(F)(F)F)C1CCCC1 (racemic) [Compound 1-139] | 5 | 5 | 5 | 5 | 5 | 5 | 0 | – | – | – | – | –
CC(Oc1ccc(Cl)cc1)C(=O)N(C)C(c1cncnc1C(F)(F)F)C(C)C (mixture of isomers) [Compound 1-116] | – | – | 5 | 4 | 5 | 5 | 0 | 5 | 5 | – | – | –
CN(C(=O)Cc1ccc(Br)cc1)C(c1cncnc1C(F)(F)F)C1CCCC1 (racemic) [Compound 1-140] | 5 | 5 | 5 | 5 | 5 | 5 | 0 | – | – | – | – | –
Cc1ncncc1C(N(C)C(=O)Cc1ccc(Cl)cc1)C(C)(C)C (racemic) [Compound 1-161] | 5 | 5 | 5 | 5 | 5 | 5 | 0 | – | – | – | – | –
COc1ccc(CC(=O)N(C)C(c2cncnc2C(F)(F)Cl)C(C)C)cc1 (racemic) [Compound 1-16] | – | – | 4 | 5 | – | – | – | 5 | 5 | 5 | 5 | 1
CC(C)C(c1cncnc1C(F)(F)F)N(C)C(=O)Cc1ccc(F)cc1F (racemic) [Compound 1-147] | 5 | 5 | 5 | 5 | 5 | 5 | 1 | – | – | – | – | –
Cc1ccc(C(c2cncnc2C(F)(F)F)N(C)C(=O)Cc2ccccc2)cc1 (racemic) [1-225] | 5 | 5 | 5 | 5 | 5 | 5 | 0 | – | – | – | – | –
Cc1ccc(CC(=O)N(C)C(c2ccc(C)cc2)c2cncnc2C(F)(F)F)cc1 (racemic) [1-228] | 5 | 5 | 5 | 5 | 5 | 5 | 0 | – | – | – | – | –
CSc1ncncc1C(C(C)C)N(C)C(=O)Cc1ccccc1 (racemic) [Compound 1-150] | 5 | 5 | 5 | 5 | 5 | 5 | 1 | – | – | – | – | –
